System: 966289-007-R4-J1-PDC complex spheroid viability
Test: Anticancer human tumor 966289-007-R4-J1-PDC patient-derived pancreatic adenocarcinoma cell line growth inhibition [RAS]
Settings: for IC50: curve of first compound; for viability, T/C: stronger effect = lower value
Description: RAS pathway inhibitors in Combinations in Complex Spheroids
A high-throughput screen of multi-cell type tumor spheroids was designed to identify active combinations of RAS pathway inhibitors and targeted small molecules. Complex spheroids include a stromal component modeled by human endothelial cells (HUVEC) and fibroblasts modeled by human mesenchymal stem cells (MSCs). The concentration ranges selected for each drug and investigational agent were based upon clinically achievable concentrations if the clinical Cmax of the agent was known.
Compounds. The drugs and investigational agents: abemaciclib (NSC768073), cobimetinib (NSC768068), divarasib (GDC6063, NSC841802), docetaxel (NSC628503), GDC-1971 (RLY-1971, NSC841576), gemcitabine (NSC613327), inavolisib (NSC800729), ipatasertib (NSC767898), KB-0742 (NSC834161), MRTX-1133 (NSC836407), osimertinib (NSC779217), RMC-4630 (NSC839698), RMC-6236 (NSC851965), RMC-6291 (NSC852671), Ro-3306 (NSC812927), sapanisertib (NSC764658), SN-38 (NSC673596), staurosporine (NSC755774), SY5609 (NSC837396), and tovorafenib (DAY101, NSC766906), were obtained from the National Cancer Institute (NCI) Developmental Therapeutics Program Chemical Repository. The FDA-approved anticancer drug set is available from the NCI Developmental Therapeutics Program. […] The stock solutions were prepared in dimethyl sulfoxide (DMSO, Sigma-Aldrich, St. Louis, MO, cat. D2650) at 800-fold the tested concentration and stored at -70 degrees C prior to their use. All drugs and investigational agents were tested over a range starting from a high concentration at or near the clinical Cmax and decreasing in half-log increments. If the clinical Cmax for an agent had not been determined, the highest concentration tested was 10 microM.
Cell Culture. All cells were maintained in an incubator at 37 degrees C and 5% CO2 with 95% humidity. The PDC lines were cultured according to standard operating procedures established by the NCI PDMR. All PDCs were thawed and cultured in Matrigel-coated flasks prepared with a working solution of 1X Ham's F-12 nutrient mix, without supplementation (Invitrogen, Waltham, MA, cat. 11765054), 100 U/mL penicillin-streptomycin (Invitrogen, cat. 15140122), and 2.5% Matrigel (Corning Inc., Corning, NY, cat. 354248) for the first three passages. The 362531-283-R-J2-PDC and 782815-120-R-J1-PDC lines were cultured in 6C/Colon 1B media, which includes advanced DMEM/F-12 (Thermo Fisher Scientific, cat. 12634028), 10 mM HEPES (Thermo Fisher Scientific, cat. 15630080), 1X GlutaMAX supplement (Thermo Fisher Scientific, cat. 35050061), 0.1 mg/mL primocin (InvivoGen, San Diego, CA, cat. ant-pm-2), 10% defined fetal bovine serum, heat inactivated (HyClone Laboratories Inc., Logan, UT, cat. SH30070.03HI), 50% L-WRN conditioned media (ATCC, cat. CRL-3276), 1.25 mM N-Acetyl-L-cysteine (Sigma-Aldrich, cat. A9165), 10 mM nicotinamide (Sigma-Aldrich, cat. N0636), 1X B-27 supplement (Thermo Fisher Scientific, cat. 17504044), 1X N-2 supplement (Thermo Fisher Scientific, cat. 17502048), 50 ng/mL human EGF (Thermo Fisher Scientific, cat. PHG0311), and 10 microM Y-27632 dihydrochloride (Tocris Bioscience, cat. 1254). The K12877-001-R-J1-PDC line was cultured in 6I media, which includes all 6C/Colon 1B media plus 10 ng/mL human FGF-10 (PeproTech, cat. 100-26), 1 ng/mL human FGF-2 (PeproTech, cat. 100-18B), 1 µM prostaglandin E2 (Tocris Bioscience, cat. 2296), […] hydrocortisone (Sigma-Aldrich, cat. H4001), and […] bovine insulin (Sigma-Aldrich, cat. I6634). The K86415-001-R-J1-PDC line was cultured in 6D media, which includes all 6C/Colon 1B media components minus the L-WRN conditioned media. The 485176-168-R4-J1-PDC was cultured in PANC media, which includes all 6C/Colon 1B media plus 100 ng/mL human FGF-10 (PeproTech, cat. 100-26), 500 nM SB-431542 (Selleckchem, cat. S1067), and 10 nM gastrin (Tocris Bioscience, cat. 3006). […]
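Further: spheroids exposed to agents for one week before readout.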
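Wherever viability, T/C is given: percent viability relative to DMSO vehicle control wells as 100%.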

With `CC(Nc1ccc2c(c1)OCCn1cc(N3C(=O)OCC3C(F)F)nc1-2)C(N)=O` (configuration not stated) + CCn1c(-c2cc(N3CCN(C)CC3)cnc2C(C)OC)c2c3cc(ccc31)-c1csc(n1)CC(NC(=O)C1CC1C)C(=O)N1CCCC(N1)C(=O)OCC(C)(C)C2 the IC50 (second compound 0.000949 µM) was over 10 µM, the IC50 (second compound 0.003 µM) was over 10 µM and the IC50 (second compound 0.00949 µM) was over 10 µM. The IC50 (second compound 0.03 µM) was over 10 µM, the IC50 (second compound 0.0949 µM) was over 10 µM and the IC50 (second compound 0.3 µM) was over 10 µM. The viability, T/C (second compound 0.000949 µM, first compound 0.0316 µM) was 126%, the viability, T/C (second compound 0.000949 µM, first compound 0.1 µM) was 124% and the viability, T/C (second compound 0.000949 µM, first compound 0.316 µM) was 105%. It also gave a viability, T/C (second compound 0.000949 µM, first compound 1 µM) of 92.2%, a viability, T/C (second compound 0.000949 µM, first compound 3.16 µM) of 110% and a viability, T/C (second compound 0.000949 µM, first compound 10 µM) of 103%. The viability, T/C (second compound 0.003 µM, first compound 0.0316 µM) was 115%, the viability, T/C (second compound 0.003 µM, first compound 0.1 µM) was 104% and the viability, T/C (second compound 0.003 µM, first compound 0.316 µM) was 108%. It also gave a viability, T/C (second compound 0.003 µM, first compound 1 µM) of 83.7%, a viability, T/C (second compound 0.003 µM, first compound 3.16 µM) of 96.8% and a viability, T/C (second compound 0.003 µM, first compound 10 µM) of 99.3%. It also gave a viability, T/C (second compound 0.00949 µM, first compound 0.0316 µM) of 123%, a viability, T/C (second compound 0.00949 µM, first compound 0.1 µM) of 113% and a viability, T/C (second compound 0.00949 µM, first compound 0.316 µM) of 104%. It also gave a viability, T/C (second compound 0.00949 µM, first compound 1 µM) of 96%, a viability, T/C (second compound 0.00949 µM, first compound 3.16 µM) of 111% and a viability, T/C (second compound 0.00949 µM, first compound 10 µM) of 95.2%. For the same compound, the viability, T/C (second compound 0.03 µM, first compound 0.0316 µM) was 84.6%, the viability, T/C (second compound 0.03 µM, first compound 0.1 µM) was 97% and the viability, T/C (second compound 0.03 µM, first compound 0.316 µM) was 133%. For the same compound, the viability, T/C (second compound 0.03 µM, first compound 1 µM) was 92.2%, the viability, T/C (second compound 0.03 µM, first compound 3.16 µM) was 122% and the viability, T/C (second compound 0.03 µM, first compound 10 µM) was 95%. The viability, T/C (second compound 0.0949 µM, first compound 0.0316 µM) was 91.6%, the viability, T/C (second compound 0.0949 µM, first compound 0.1 µM) was 119% and the viability, T/C (second compound 0.0949 µM, first compound 0.316 µM) was 104%. For the same compound, the viability, T/C (second compound 0.0949 µM, first compound 1 µM) was 101%, the viability, T/C (second compound 0.0949 µM, first compound 3.16 µM) was 114% and the viability, T/C (second compound 0.0949 µM, first compound 10 µM) was 88.4%. The viability, T/C (second compound 0.3 µM, first compound 0.0316 µM) was 121%, the viability, T/C (second compound 0.3 µM, first compound 0.1 µM) was 108% and the viability, T/C (second compound 0.3 µM, first compound 0.316 µM) was 90.3%. It also gave a viability, T/C (second compound 0.3 µM, first compound 1 µM) of 94.5%, a viability, T/C (second compound 0.3 µM, first compound 3.16 µM) of 123% and a viability, T/C (second compound 0.3 µM, first compound 10 µM) of 92%.

Reference: PubChem BioAssay AID2060897 (Molecular Pharmacology Branch, DTP, NCI, 2025)
